Read-outs that look alike come from different tables or passages of the source.

For assay [1], the system named is Lewis rats, adjuvant-induced arthritis. The assay can be described thus: Lewis Rat Adjuvant-Induced Arthritis Model. The assay is classed as in vivo. The protocol:
Female inbred Lewis rats (Charles River) weighing 150-200 grams were injected intradermally in the tail with either 0.1 mL of Mycobacterium butyricum (Difco) in mineral oil (5 mg.mL) or with mineral oil alone. Starting on the day of innoculation and for 32 days, paw edema was determined for right and left hind limbs using the mercury displacemnt method. From day 1 some animals were treated with 30 mg/Kg p.o. MDL 29,355 once daily.

The next assay has as its system Rat PMNL. The assay can be described thus: Superoxide Anion (SOA) Production by rat PMNL. As to conditions: for inhibition of superoxide anion production: PMA and OZ induced; for inhibition at 1 µM / inhibition at 3 µM / inhibition at 10 µM / inhibition at 30 µM / inhibition at 100 µM / inhibition at 300 µM: Rattus norvegicus, PMNL. The assay is classed as cell-based. The protocol: Rat PMNL were obtained from exudates resulting from peritoneal injection of 6 mL of 8% sodium caseinate. Eighteen hours after injection rats were killed by carbon dioxide inhalation and the peritoneal cavity lavaged with Hank's balanced salt solution (HBSS). After concentration of the PMNL by centrifugation, contaminating erythrocytes were removed by hypotonic lysis. The PMNL were then washed twice by centrifugation (400×g for 10 minutes) and resuspended in HBSS. Cell viability was greater than 90% by Trypan Blue exclusion and greater than 90% of the cells were PMNL by Wright-Giemsa stain.
Aliquots (50 μl) of a rat PMNL suspension (2×10^7 cells/mL in HBSS) were incubated with 50 μl of HBSS containing vehicle (0.3% DMSO) or compound for 30 minutes at 37° C. as above. One hundred microliters of buffer containing 5.98 mg/mL of cytochrome C (Sigma Type III) and 0.1 mg/mL catalase, plus the compounds where appropriate, were then added to each sample. A blank for spectrophotometric measurement, containing unstimulated cells in the presence of cytochrome C, catalase and SOD, was also prepared. To activate the PMNL, 75 μl of PMA or OZ were added to achieve the final concentration of cell activator (plus vehicle or inhibitor as described above for MPO release) and the cells further incubated at 37° C. for 60 minutes. The activation was terminated by centrifugation at 600×g for 5 minutes at 4° C. Aliquots (200 μl) of supernatant were then transferred to a second, flat-well microtiter plate and measured spectrophotometrically at 550 nm. […]

Assay [2] relates to Sprague Dawley rats, carrageenin-induced paw edema. The experiment in a line: Carrageenin Induced Rat Paw Edema. The assay is classed as in vivo. The following applies: i.p, one hour prior to carrageenin; read 3 hours after. The protocol: Charles River male Sprague Dawley rats weighing 90 to 100 grams were used. Inflammation of the left hind paw was induced by a 1% carrageenin solution (0.05 cc), injected into the plantar surface of the paw. The contralateral paw was injected with an equal volume of saline. Drugs were administered orally or i.p. (1 cc/100 grams) one hour prior to paw injection. Three hours following the carrageenin injection the difference in volume of the control and inflamed paw was measured. Each paw was immersed in a well of mercury and the volume of mercury displaced was recorded. Paws were uniformly dipped into the mercury up to the beginning of the hairline. A venous pressure transducer, coupled to an oscillographic recorder, was employed to measure the small volumes of mercury displaced. Each group measurement consists of the average of four rats, each with three separate measurements.
(Carrageenan injected into the paw causes an acute inflammation.)

Assay [3] deals with Sprague-Dawley rats, Arthus reaction. The assay can be described thus: Arthus Reaction in Rat Skin. The assay is classed as in vivo. Here is the method: Anesthetized male Sprague-Dawley rats (Charles River) weighing 200-250 grams received 100 mg/Kg i.v. sterile bovine serum albumin (BSA) solution (5 mg/mL). immediately after injection, the animals received an intradermal injection of 100 ug of rabbit anit-BSA in saline. This produces an immune complex mediated inflammation (Arthus reaction) where immune complexes fix complement releasing factors that attract neutrophils. The neutrophils then are activated causing local tissue damage as manifested in a hemorrhagic spot. The extent of the reaction is reflected in the size of the spot as measured by image analysis techniques.

Where [4] appears, read: PMA, read-out: PMA/SOA inhibition.
The mark [5] stands for this setting: opsonized zymosan, read-out: OZ/SOA inhibition.

Consider `O=C(C=Cc1ccncc1)c1ccccc1` [MDL 29,355, 1-phenyl-3-(4-pyridinyl)-2-propene-1-one], for which the “paw swelling reduction, day 20” value in assay [1] (30 mg/Kg p.o. once daily from day 1, day 20) is 36.4% ±16.6%. Also, the “paw swelling inhibited, day 32” value in assay [1] (30 mg/Kg p.o. once daily from day 1, day 32, not significantly different from untreated controls) was 30.9%±22.4%. Further, the “animals never displaying adjuvant arthritis” value in assay [1] (30 mg/Kg p.o. once daily, all control animals displayed arthritis) is “one of the 3 treated animals never displayed adjuvant arthritis”. For the same molecule, in the assay on Rat PMNL, the “inhibition of superoxide anion production” value is “inhibited in a dose dependent fashion”. In addition, in the assay on Rat PMNL (setting [4]), the inhibition at 1 µM was -29.5%, the inhibition at 3 µM was -30.2%, the inhibition at 10 µM is -20.7% and the inhibition at 30 µM was -12.3%. Also, in the assay on Rat PMNL (setting [4]), the inhibition at 100 µM worked out at 21.1% and the inhibition at 300 µM is 104%. Also, in the assay on Rat PMNL (setting [5]), the inhibition at 1 µM is -10.7%, the inhibition at 3 µM is -12.6%, the inhibition at 10 µM came to 2.5% and the inhibition at 30 µM was 27.5%. In the assay on Rat PMNL (setting [5]), the inhibition at 100 µM was 67.6% and the inhibition at 300 µM turned out to be 102%. In addition, in assay [2], the “% Inhibition of carrageenin-induced paw edema” value was determined as 51.4 ± 8.5%. The “hemorrhagic spot size reduction” value in assay [3] (i.p. 100 mg/Kg, 30 minutes before Arthus reaction) was 55.0%±16.8%. Further, the “hemorrhagic spot size reduction” value in assay [3] (intradermal 100ug with the antibody) is on record as 41.7% ±12.5%.

For the molecule `CN(C)c1ccc(C(=O)C=Cc2ccncc2)cc1` [MDL 101,240, 1-(4-dimethylaminophenyl)-3-(4-pyridinyl)-2-propene-1-one], in the assay on Rat PMNL, the “inhibition of superoxide anion production” value is “inhibited in a dose dependent fashion”. In the assay with Rat PMNL (setting [4]), the inhibition at 1 µM was -7.2%, the inhibition at 3 µM was found to be 4.7%, the inhibition at 10 µM was 5.9% and the inhibition at 30 µM turned out to be 34.5%. The inhibition at 100 µM with Rat PMNL (setting [4]) came to 81.5%. Besides, in the assay on Rat PMNL (setting [5]), the inhibition at 1 µM is -7.8%, the inhibition at 3 µM is 2.5%, the inhibition at 10 µM turned out to be 21.3% and the inhibition at 30 µM was 66.3%. In the assay with Rat PMNL (setting [5]), the inhibition at 100 µM came out at 85%.

For the origin of these results see US5500429A, “Calcium uptake inhibitors” (Merrell Pharmaceuticals Inc., priority 1993, dated 1996).
